Assay results from publication PMC12320284, “Biochemical and biological evaluation of L-glutaminase from Aspergillus tamarii AUMC 10198 via solid-state fermentation” (Microbial Cell Factories, 2025).

Test system: T1, L-glutaminase (Aspergillus tamarii AUMC 10198)
T1 construct: gene gtaA; approx. 62 kDa by SDS-PAGE, single band
Assay: Nesslerization ammonia assay, […] nm; Lineweaver-Burk plot
Type: biochemical
Conditions: standard assay conditions (0.1 M citrate-phosphate pH 7, 30 °C, 30 min as described for the crude enzyme); 0.2-2.0 mg/ml L-glutamine; apparent Km

Km: 0.28 mg/mL
SMILES: NC(=O)CC[C@H](N)C(=O)O [L-glutamine]
